Results taken from patent US20180273531A1, “PYRIMIDINE COMPOUND AND MEDICAL USE THEREOF” (Japan Tobacco Inc., priority 2004, published 2018).

Assays:
Type in all cases: cell-based
[1] = system: p15 protein; assay: Evaluation of p15 induction activity (Western blotting); conditions: test substance 0.1 μM, 24 hrs, ACHN cells or HT-29 cells, compared to DMSO, n=2
In short: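 p15 protein quantified by densitometry of anti-p15 Western blots (10 μg protein per lane, mean of n=2). Samples came from HT-29 or ACHN cells given 0.1 μM compound for 24 h after 24 h plating, with DMSO as control.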

[2] = system: p27 protein; assay: p27 protein induction test (Western blotting); conditions: test substance (0.1 1M), 24 hrs, ACHN cells or HT-29 cells, compared to DMSO, n=2
In short: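 p27 level taken as anti-p27 band density by densitometry, mean of n=2, with DMSO as control. Samples loaded at amount equivalent to 10 μg BSA. Cells were ACHN or HT-29, exposed 24 h to […] test substance after 24 h pre-culture.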

[3] = system: colorectal cancer cell line HT-29 cells; assay: Growth inhibitory effect against cancer cell lines (3H-thymidine uptake), HT-29; conditions: Homo sapiens, HT-29, inhibition of 3H-thymidine uptake; test substance 18 hrs, then 3H-thymidine 6 hrs; triplicate
In short: (§1)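 IC50 = concentration reducing ^3H-thymidine incorporation to 50% of DMSO control, measured in triplicate. Compound added 24 hrs after plating (1.0×10^4 cells/well); label (0.25 μCi/well) given after 18 hrs of treatment, followed by 6 hrs further culture and scintillation counting of harvested cells.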

[4] = system: Renal cancer cell line ACHN cell; assay: Growth inhibitory effect against cancer cell lines (3H-thymidine uptake), ACHN; conditions: Homo sapiens, ACHN
In short: as §1

IC50 [3] [nM]	IC50 [4] [nM]	SMILES	fold induction at 0.1 µM [1]	fold induction at 0.1 µM [2]
10 to 100	100 to 1000	CCc1ccc(Nc2c3c(=O)n(C)c(=O)n(-c4cccc(NC(C)=O)c4)c3c(C)c(=O)n2C)c(F)c1 [Example 4-50]	≥ 1.5	≥ 1.5
< 10	< 10	Cc1c(=O)n(C)c(Nc2ccc(I)cc2F)c2c(=O)n(C3CC3)c(=O)n(-c3cccc(N4CCOC4=O)c3)c12 [Example 4-125]	≥ 1.5	≥ 1.5
< 10	10 to 100	C#Cc1ccc(Nc2cc(=O)n(C)c3c2c(=O)n(C2CC2)c(=O)n3-c2cccc(NS(C)(=O)=O)c2)cc1 [Example 1-290]	≥ 1.5	≥ 1.5
10 to 100	100 to 1000	CCNS(=O)(=O)c1cccc(-n2c(=O)n(C3CC3)c(=O)c3c(Nc4ccc(Br)cc4F)cc(=O)n(C)c32)c1 [Example 1-295]	≥ 1.5	≥ 1.5
< 10	100 to 1000	CN(C)S(=O)(=O)c1cccc(-n2c(=O)n(C3CC3)c(=O)c3c(Nc4ccc(Br)cc4F)cc(=O)n(C)c32)c1 [Example 1-224]	≥ 1.5	≥ 1.5
< 10	10 to 100	Cc1c(=O)n(C)c(Nc2ccc(I)cc2F)c2c(=O)n(C)c(=O)n(-c3ccc(S(N)(=O)=O)cc3)c12 [Example 4-119]	≥ 1.5	≥ 1.5
10 to 100	100 to 1000	Cc1c(=O)n(C)c(Nc2ccc(I)cc2F)c2c(=O)n(C3CC3)c(=O)n(-c3cc(Cl)cc(NS(C)(=O)=O)c3)c12 [Example 4-64]	≥ 1.5	≥ 1.5
10 to 100	100 to 1000	CCc1ccc(Nc2cc(=O)n(C)c3c2c(=O)n(C2CC2)c(=O)n3-c2ccccc2)c(F)c1 [Example 1-242]	≥ 1.5	≥ 1.5
10 to 100	100 to 1000	Cc1c(=O)n(C)c(Nc2ccc(I)cc2F)c2c(=O)n(C3CC3)c(=O)n(-c3cccc(NC(=O)c4cn[nH]c4)c3)c12 [Example 4-89]	≥ 1.5	≥ 1.5
< 10	10 to 100	CONC(=O)Nc1cccc(-n2c(=O)n(C3CC3)c(=O)c3c(Nc4ccc(I)cc4F)n(C)c(=O)c(C)c32)c1 [Example 4-74]	≥ 1.5	≥ 1.5
< 10	100 to 1000	Cc1c(=O)n(C)c(Nc2ccc(I)cc2F)c2c(=O)n(C3CC3)c(=O)n(-c3ccc(NS(C)(=O)=O)c(Cl)c3)c12 [Example 4-116]	≥ 1.5	≥ 1.5
< 10	10 to 100	C#Cc1ccc(Nc2c3c(=O)n(C)c(=O)n(-c4cccc(NC(C)=O)c4)c3c(C)c(=O)n2C)c(F)c1 [Example 4-48]	≥ 1.5	≥ 1.5
10 to 100	100 to 1000	CCS(=O)(=O)c1cccc(-n2c(=O)n(C3CC3)c(=O)c3c(Nc4ccc(Br)cc4F)n(C)c(=O)c(C)c32)c1 [Example 4-10]	≥ 1.5	≥ 1.5
< 10	10 to 100	CSc1ccc(Nc2c3c(=O)n(C4CC4)c(=O)n(-c4cccc(NS(C)(=O)=O)c4)c3c(C)c(=O)n2C)c(F)c1 [Example 4-106]	≥ 1.5	≥ 1.5
10 to 100	100 to 1000	Cn1c(=O)cc(Nc2ccc(Br)cc2F)c2c(=O)n(C3CC3)c(=O)n(-c3cccc(N)c3)c21 [Example 1-264]	≥ 1.5	≥ 1.5
< 10	10 to 100	Cc1c(=O)n(C)c(Nc2ccc(I)cc2F)c2c(=O)n(C3CC3)c(=O)n(-c3cccc(NC(N)=O)c3)c12 [Example 4-81]	≥ 1.5	≥ 1.5
< 10	10 to 100	Cc1c(=O)n(C)c(Nc2ccc(I)cc2F)c2c(=O)n(C3CC3)c(=O)n(-c3ccccc3)c12 [Example 4-72]	≥ 1.5	≥ 1.5
10 to 100	10 to 100	CC(=O)Nc1cccc(-n2c(=O)n(C3CC3)c(=O)c3c(Nc4ccc(N(C)C)cc4F)n(C)c(=O)c(C)c32)c1 [Example 4-61]	≥ 1.5	≥ 1.5

IC50 [3] [nM]	IC50 [4] [nM]	SMILES	fold induction at 0.1 µM [1]	fold induction at 0.1 µM [2]
< 10	10 to 100	Cc1c(=O)n(C)c(Nc2ccc(I)cc2F)c2c(=O)n(C3CC3)c(=O)n(-c3cccc(N4C(=O)CNC4=O)c3)c12 [Example 4-108]	≥ 1.5	≥ 1.5
10 to 100	100 to 1000	CCCc1ccc(Nc2c3c(=O)n(C4CC4)c(=O)n(-c4cccc(NC(C)=O)c4)c3c(C)c(=O)n2C)c(F)c1 [Example 4-53]	≥ 1.5	≥ 1.5
10 to 100	100 to 1000	CNc1cccc(-n2c(=O)n(C3CC3)c(=O)c3c(Nc4ccc(Br)cc4F)cc(=O)n(C)c32)c1 [Example 1-283]	≥ 1.5	≥ 1.5
< 10	10 to 100	Cc1c(=O)n(C)c(Nc2ccc(I)cc2F)c2c(=O)n(C3CC3)c(=O)n(-c3cccc(N4CCNS4(=O)=O)c3)c12 [Example 4-114]	≥ 1.5	≥ 1.5
< 10	100 to 1000	Cc1c(=O)n(C)c(Nc2ccc(I)cc2F)c2c(=O)n(C3CC3)c(=O)n(-c3ccc4c(c3)NC(=O)CC4)c12 [Example 4-123]	≥ 1.5	≥ 1.5
10 to 100	100 to 1000	C#Cc1ccc(Nc2c3c(=O)n(CC)c(=O)n(-c4cccc(NC(C)=O)c4)c3c(C)c(=O)n2C)c(F)c1 [Example 4-43]	≥ 1.5	≥ 1.5
< 10	10 to 100	Cc1c(=O)n(C)c(Nc2ccc(I)cc2F)c2c(=O)n(C3CC3)c(=O)n(-c3ccc4[nH]nnc4c3)c12 [Example 4-121]	≥ 1.5	≥ 1.5
10 to 100	10 to 100	CCc1ccc(Nc2cc(=O)n(C)c3c2c(=O)n(C2CC2)c(=O)n3-c2cccc(NS(=O)(=O)CC)c2)c(F)c1 [Example 1-268]	≥ 1.5	≥ 1.5
< 10	< 10	Cc1c(=O)n(C)c(Nc2ccc(I)cc2F)c2c(=O)n(C3CC3)c(=O)n(-c3ccc4c(c3)NC(=O)C4)c12 [Example 4-88]	≥ 1.5	≥ 1.5
< 10	< 10	Cc1c(=O)n(C)c(Nc2ccc(I)cc2F)c2c(=O)n(C3CC3)c(=O)n(-c3cccc(NS(C)(=O)=O)c3)c12 [Example 3-7, N-{3-[3-cyclopropyl-5-(2-fluoro-4-iodophenylamino)-6,8-dimethyl-2,4,7-trioxo-3,4,6,7-tetrahydro-2H-pyrido[4,3-d]pyrimidin-1-yl]phenyl}methanesulfonamide]	≥ 1.5	≥ 1.5
< 10	10 to 100	Cc1c(=O)n(C)c(Nc2ccc(I)cc2F)c2c(=O)n(C3CC3)c(=O)n(-c3ccc(F)c(NS(C)(=O)=O)c3)c12 [Example 4-101]	≥ 1.5	≥ 1.5
< 10	10 to 100	C#Cc1ccc(Nc2c3c(=O)n(C4CC4)c(=O)n(-c4ccc(NS(C)(=O)=O)cc4)c3c(C)c(=O)n2C)c(F)c1 [Example 4-76]	≥ 1.5	≥ 1.5
10 to 100	100 to 1000	CONC(=O)Nc1cccc(-n2c(=O)n(C3CC3)c(=O)c3c(Nc4ccc(Br)cc4F)cc(=O)n(C)c32)c1 [Example 1-327]	≥ 1.5	≥ 1.5
< 10	10 to 100	Cc1c(=O)n(C)c(Nc2ccc(I)cc2F)c2c(=O)n(C3CC3)c(=O)n(-c3ccc4cn[nH]c4c3)c12 [Example 4-115]	≥ 1.5	≥ 1.5
< 10	10 to 100	Cc1cc(I)ccc1Nc1cc(=O)n(C)c2c1c(=O)n(C1CC1)c(=O)n2-c1cccc(NS(C)(=O)=O)c1 [Example 1-340]	≥ 1.5	≥ 1.5
10 to 100	100 to 1000	Cn1c(=O)cc(Nc2ccc(Br)cc2F)c2c(=O)n(C3CC3)c(=O)n(-c3cccc(NS(=O)(=O)c4ccccc4)c3)c21 [Example 1-284]	≥ 1.5	≥ 1.5
< 10	10 to 100	Cn1c(=O)cc(Nc2ccc(I)cc2)c2c(=O)n(C3CC3)c(=O)n(-c3ccccc3)c21 [Example 1-221]	≥ 1.5	≥ 1.5
10 to 100	100 to 1000	C#Cc1ccc(Nc2cc(=O)n(C)c3c2c(=O)n(C2CC2)c(=O)n3-c2ccccc2)cc1 [Example 1-222]	≥ 1.5	≥ 1.5
